Laboratory results reported in publication PMC11960070 (Microbiology Spectrum, 2025).
Where no end group is shown, it is not given here.

How the values were obtained:
mAb 8C1 = assay: MIA: 8C1 reactivity with OspC-derived peptides / alanine scan
[1] = test system: B. burgdorferi seropositive serum samples; assay: MIA: Lyme disease-positive human serum IgG binding to Ala-substituted 130–150 peptides; details: n = 26 sera, 1:100

| Substance | 8C1 reactivity with OspCA peptide (mAb 8C1) | Effect of Ala substitution on peptide recognition by human serum samples [1] |
| --- | --- | --- |
| 130–150: OspCA-derived peptide composed of residues 130-150 (CSETFTNKLKEKHTDLGKEGV; UniProt Q07337 130-150, looked up, fragment) | reacted strongly | – |
| D144: 130–150 peptide with single Ala substitution at D144 (CSETFTNKLKEKHTALGKEGV; also: biotinylated, site not given here; UniProt Q07337 130-150, looked up, variant D144A) | – | negatively affected |
| E140: 130–150 peptide with single Ala substitution at E140 (CSETFTNKLKAKHTDLGKEGV; also: biotinylated, site not given here; UniProt Q07337 130-150, looked up, variant E140A) | – | negatively affected |
